Values of other authors as cited in article PMC11238383, “A review on the cultivation, bioactive compounds, health-promoting factors and clinical trials of medicinal mushrooms Taiwanofungus camphoratus, Inonotus obliquus and Tropicoporus linteus” (Fungal Biology and Biotechnology, 2024).
≈ marks a conversion by molar mass, not a printed value. Read-outs that look alike come from different tables or passages of the source.

Columns and labels:
[1] = tested on: Severe acute respiratory syndrome coronavirus 2 (SARS-CoV-2) virus-infected HepG2 cells; parameters: method as in Li et al. [35], [38]; settings: ref Li et al. [35], [38]
MIN6N beta-cells = tested on: MIN6N beta-cells; parameters: method as in Lee et al. [235]; settings: 10–70 uM, dose-dependent, ref Lee et al. [235]
[2] = tested on: Oleic and palmitic acids (O/P) lipid accumulation-induced HepG2 cells; parameters: method as in Chiu et al. [138]; settings: ref Chiu et al. [138]
[3] = tested on: human adenocarcinoma and human lung carcinoma cell lines; parameters: method as in doi:10.1016/j.jff.2020.104025; settings: ref [97]
MDA-MB-231 cells = settings: 10 µg/mL alone; ref [226]
P. gingivalis = settings: ref [131], [132], [133]
[4] = tested on: High-fat diet-induced C57BL/6J mice; parameters: method as in Lin et al. [175]; settings: ref Lin et al. [175]
[5] = tested on: High-fat diet-induced C57BL/6J mice; parameters: method as in Lin et al. [175]; settings: ref Lin et al. [175]; remark: listed apart in the source
[6] = for reducing power: ref [133]; for antioxidant activity: ref Lee et al. [226]
[7] = tested on: H2O2)-injured human neuroblastoma cells; parameters: method as in PMID 33084385; settings: ref [108]
[8] = tested on: AGS, MCF-7, and PC3 cancer cells; parameters: method as in PMID 32899899; settings: ref [95]
NO = tested on: NO; parameters: method as in Park et al. [99]; settings: ref Park et al. [99]
[9] = parameters: method as in PMID 31891260; settings: ref [61]
normal cells (LO2) = settings: ref [63]
[10] = tested on: human cancer cells (U251, HL60, SW480, and A549); settings: ref [63]
H1N1 neuraminidase = settings: ref [13]
[11] = parameters: method as in Zhang et al. [179]; settings: DPPH assay; ref Zhang et al. [179]
[12] = tested on: mouse melanoma and human lung cancer cells; parameters: method as in PMID 18239302; settings: ref [135]
[13] = tested on: inducible-nitric oxide synthase (iNOS) protein; parameters: method as in PMID 33434790; settings: ref [107]
Influenza A H1N1 virus = tested on: Influenza A H1N1 virus; parameters: method as in Hwang et al. [13]; settings: 10 uM; ref Hwang et al. [13]
[14] = tested on: Polyinosinic-polycytidylic acid (poly IC)-induced RAW 264.7 cells
aldose reductase = tested on: aldose reductase; parameters: method as in Lee et al. [136]; settings: ref Lee et al. [136]
U251 and MCF-7 = tested on: U251 and MCF-7; parameters: method as in PMID 31891260; settings: ref [61]
human glioblastoma cells = tested on: human glioblastoma cells; parameters: method as in Yang et al. [70]; settings: in vitro; ref Yang et al. [70]
[15] = tested on: glioblastoma-xenografted mice; parameters: method as in Yang et al. [70]; settings: in vivo; ref Yang et al. [70]
A549 and HeLa cell lines = settings: ref [105]

In the case of `O=c1cc(O)cc(/C=C/c2ccc(O)c(O)c2)o1` [Hispidin, hispidin], the ACE2 gene expression [1] is given as “Reduced the expression of angiotensin-converting enzyme 2 (ACE2) gene”, the “highest ROS scavenging activity” value (MIN6N beta-cells) is given as 10–70 uM had notable reactive oxygen species (ROS) scavenging activity in a dose-dependent manner, with the highest activity being 65% and the “highest ROS scavenging activity” value (MIN6N beta-cells; listed as hispidin) is given as “about 65%”. The lipid accumulation [2] was “Significant reduction in lipid accumulation”.

In the case of `C=C(C)[C@@H]1CC[C@]2(CO)CC[C@]3(C)[C@H](CC[C@@H]4[C@@]5(C)CC[C@H](O)C(C)(C)[C@@H]5CC[C@]43C)[C@@H]12` [betulin], the proliferation [3] is given as “inhibited the proliferation”.

For `O=c1[nH]cc(F)c(=O)[nH]1` [5-fluorouracil], the “inhibition in cell growth” value (MDA-MB-231 cells) is listed as 12.6%.

In the case of `C=C1CCCC(C)(C)C1CC/C(C)=C/CO` (single isomer, unassigned; (-)) [(-)-trans-γ-monocyclofarnesol], the antimicrobial activity (P. gingivalis) is given as “antimicrobial effects”.

For `C=C(CC[C@@H](C(=O)O)[C@H]1CC[C@@]2(C)C3=C(CC[C@]12C)[C@@]1(C)CC[C@H](O)C(C)(C)[C@@H]1CC3)C(C)C` [Eburicoic acid], the “AMPK phosphorylation, Akt, membrane GLUT4” value [4] is listed as “Increase AMPK phosphorylation, Akt, and membrane GLUT4 level” and the “PPAR-α expression in the liver” value [5] is listed as “Increased expression of PPAR-α in the liver which facilitated fatty acid oxidation and the reduction of lipid levels”.

In the case of `C=C1CC(O)CC(C)(C)C1/C=C/C(C)=C/C(=O)O` (stereo not drawn) [(2E,4E)-4′-Hydroxy-γ-ionylideneacetic acid], the reducing power [6] is listed as “weak reducing power”.

For `CC1=CC(=O)C2(O1)c1c(cc(/C=C/c3ccc(O)c(O)c3)oc1=O)OC2c1ccc(O)c(O)c1` (stereo not drawn) [inoscavin A], the cell viability [7] is listed as “improve cell viabilities”.

For `CC(C)=CC[C@@H](O)[C@@H](C)[C@H]1CC[C@@]2(C)C3=C(CC[C@]12C)[C@@]1(C)CC[C@H](O)C(C)(C)[C@@H]1CC3` [Inotodiol], the anti-proliferative activity [8] is listed as “anti-proliferative activities” and the NO inhibition (NO) is listed as “NO-inhibiting effects”.

In the case of antcamphorol I, the ROS scavenging [9] is given as “ROS scavenging abilities”.

For `C=C(CC[C@@H](C)[C@H]1CC[C@@]2(O)C3=C(C(=O)C[C@]12C)[C@@]1(C)CCC(=O)[C@@H](C)[C@@H]1CC3=O)C(C)C(=O)OCC` (stereo partly drawn) [Antcamphin Z], the “effect on normal cells” value (normal cells (LO2)) is given as “no significant effects on normal cells” and the cytotoxicity [10] is given as “potent cytotoxic activities”.

For antroquinonol Y, the “effect on normal cells” value (normal cells (LO2)) is given as “without affecting normal cells” and the cytotoxicity [10] is given as “significant cytotoxic effects”.

For `CCOC(=O)C1=C[C@@H](OC(CC)CC)[C@H](NC(C)=O)[C@@H](N)C1` [Oseltamivir, reference compound], the IC50 (H1N1 neuraminidase) is given as 64 µM.

In the case of `CC(C)(C)c1cc(O)ccc1O` [tert-Butylhydroquinone (TBHQ), tert-Butylhydroquinone], the EC50 [11] is listed as 11.2 µg/mL (≈ 67.4 µM).

In the case of `C=C1CCCC(C)(C)C1/C=C/C(C)=C/C(=O)O` (stereo not drawn) [(2E,4E)-γ-Ionylideneacetic acid], the reducing power [6] is given as “weak reducing power”.

In the case of `C=C1CCCC(C)(C)C1C=CC(C)=CC(=O)O` (stereo not drawn) [( +)-γ-ionylideneacetic acid], the antimicrobial activity (P. gingivalis) is given as “did not show any detectable activities”.

In the case of `O=C(O)/C=C/c1ccc(O)c(O)c1` [Caffeic acid, caffeic acid], the antioxidant activity [6] is listed as “Potent antioxidant activity, with higher antioxidant activity than BHA and Trolox in FRAP assay”.

In the case of `O=c1oc(/C=C/c2ccc(O)c(O)c2)cc2oc(-c3ccc(O)c(O)c3)cc12` [Phellifuropyranone A], the antiproliferative activity [12] is listed as “antiproliferative activity”.

In the case of `O=C1O[C@H]([C@@H](O)CO)C(O)=C1O` [vitamin C, ascorbic acid], the EC50 [11] is listed as 6 µg/mL (≈ 34.1 µM).

For inonotusol L, the “interaction with iNOS protein” value [13] is given as “capable of interacting with inducible-nitric oxide synthase (iNOS) protein”.

For `CC(=O)C=Cc1ccc(O)c(O)c1` [4-(3,4-Dihydroxyphenyl)-3-buten-2-one], the visible cytopathic effects (Influenza A H1N1 virus) is given as 10 uM of both inhibited the formation of visible cytopathic effects, with IC50 values lower than Oseltamivir, the IC50 (H1N1 neuraminidase) is given as 52 µM and the neuraminidase activity (H1N1 neuraminidase) is given as “inhibit neuraminidase activity”. The antioxidant activity [6] was “Potent antioxidant activity, with higher antioxidant activity than BHA and Trolox in FRAP assay”.

In the case of `CC(C)=CCC[C@@H](C(=O)O)[C@H]1CC[C@@]2(C)C3=C(CC[C@]12C)[C@@]1(C)CC[C@H](O)C(C)(C)[C@@H]1CC3` [trametenolic acid], the anti-proliferative activity [8] is given as “anti-proliferative activities” and the NO inhibition (NO) is given as “NO-inhibiting effects”.

In the case of `C=C(CC[C@@H](C)[C@H]1CC[C@H]2C3=C(C(=O)C[C@]12C)[C@@]1(C)CCC(=O)[C@@H](C)[C@@H]1C[C@H]3O)C(C)C` [antcamphorol J], the ROS scavenging [9] is given as “ROS scavenging abilities”.

In the case of `C=C(C)[C@@H]1CC[C@]2(C(=O)O)CC[C@]3(C)[C@H](CC[C@@H]4[C@@]5(C)CC[C@H](O)C(C)(C)[C@@H]5CC[C@]43C)[C@@H]12` [betulinic acid], the proliferation [3] is listed as “inhibited the proliferation”.

In the case of 4-acetylantroquinonol B, the IC50 ([14]; ref Tu et al. [186], read-out: IC50 of NO production) is listed as 0.57 µM and the NO production ([14]; ref [72]) is listed as “significantly inhibited”.

In the case of `CC(C)(O)[C@H]1CC[C@H]([C@H]2CC[C@@]3(C)C4=C(CC[C@]23C)[C@@]2(C)CC[C@H](O)C(C)(C)[C@@H]2CC4)[C@H]1O` [inonotsutriol A], the NO inhibition (NO) is given as “NO-inhibiting effects”.

In the case of `O=c1oc2c(O)c(O)cc3c(=O)oc4c(O)c(O)cc1c4c23` [ellagic acid], the aldose reductase inhibition (aldose reductase) is given as “capable of inhibiting aldose reductase”.

For `CC1=CC[C@@H]([C@@](C)(O)[C@@H]2C[C@H]2C(C)(C)O)CC1` [Phellilane L], the antimicrobial activity (P. gingivalis) is listed as “antimicrobial activities”.

In the case of `C=C1CCCC(C)(C)[C@H]1[C@H]1O[C@@H]1/C(C)=C/C(=O)O` [phellidene E], the antimicrobial activity (P. gingivalis) is given as “did not show any detectable activities”.

In the case of `C=C(CC[C@@H](C)[C@H]1CC[C@H]2C3=CC[C@H]4[C@H](C)[C@@H](O)CC[C@]4(C)C3=C[C@@H](O)[C@]12C)C(C)C` [antcamphorol H], the cytotoxicity (U251 and MCF-7) is given as “cytotoxic activities”.

In the case of phellilane H, the reducing power [6] is listed as “weak reducing power” and the antimicrobial activity (P. gingivalis) is listed as “did not show any detectable activities”.

For `C/C=C(\CO)CC[C@@H](C)[C@H]1CC[C@H]2C3=C(C(=O)C[C@]12C)[C@@]1(C)CC[C@@H](O)[C@](C)(O)[C@@H]1C[C@@H]3O` [antcamphorol C], the cytotoxicity (U251 and MCF-7) is given as “cytotoxic activities”.

For `COC1=C(OC)C(=O)C(C)=CC1=O` [coenzyme Q0, 2,3-dimethoxy-5-methyl-1,4-benzoquinone], the “apoptosis and autophagic cell death” value (human glioblastoma cells) is listed as “inducing apoptosis and autophagic cell death” and the “apoptosis and autophagic cell death” value [15] is listed as “inducing apoptosis and autophagic cell death”.

In the case of `C[C@H](/C=C/C=O)[C@H]1CC[C@@]2(C)C3=C(CC[C@]12C)[C@@]1(C)CC[C@H](O)C(C)(C)[C@@H]1CC3` [inonotusane C], the cytotoxicity (A549 and HeLa cell lines) is given as “cytotoxic activities”.

For antcamphorol G, the ROS scavenging [9] is given as “ROS scavenging abilities”.

In the case of inonotusol I, the “interaction with iNOS protein” value [13] is given as “capable of interacting with inducible-nitric oxide synthase (iNOS) protein”.

In the case of `O=C1C=C(/C=C/c2ccc(O)c(O)c2)OC12C(c1cc3oc(=O)c4cc(O)c(O)cc4c3c(=O)o1)=Cc1cc(O)c(O)cc12` (stereo not drawn) [phelligridin G], the antiproliferative activity [12] is listed as “antiproliferative activity”.

In the case of `CC1=CC(=O)[C@H](c2c(O)cc(/C=C/c3ccc(O)c(O)c3)oc2=O)[C@@H](c2ccc(O)c(O)c2)O1` [davallialactone], the aldose reductase inhibition (aldose reductase) is given as “capable of inhibiting aldose reductase”.
